Experimental data from patent US9302999B2, “Substituted triazoles as herbicides” (E. I. DU PONT DE NEMOURS AND COMPANY, priority 2012, dated 2016).

Legend:
Assay type in all cases: in vivo
[1] = test system: buckwheat, wild (wild buckwheat, Polygonum convolvulus); test: Test D pre-/postemergence: buckwheat, wild
Text: Seeds of plant species selected from bluegrass (annual bluegrass, Poa annua), blackgrass (Alopecurus myosuroides), canarygrass (Phalaris minor), chickweed (common chickweed, Stellaria media), galium (catchweed bedstraw, Galium aparine), bromegrass, downy (downy bromegrass, Bromus tectorum), field poppy (Papaver rhoeas), field violet (Viola arvensis), foxtail, green (green foxtail, Setaria viridis), deadnettle (henbit deadnettle, Lamium amplexicaule), ryegrass, Italian (Italian ryegrass, Lolium multiflorum), kochia (Kochia scoparia), lambsquarters (Chenopodium album), oilseed rape (Brassica napus), pigweed (Amaranthus retroflexus), Russian thistle (Salsola iberica), chamomile (scentless chamomile, Matricaria inodora), speedwell (bird's-eye speedwell, Veronica persica), barley, spring (spring barley, Hordeum vulgare), wheat, spring (spring wheat, Triticum aestivum), buckwheat, wild (wild buckwheat, Polygonum convolvulus), mustard, wild (wild mustard, Sinapis arvensis), oat, wild (wild oat, Avena fatua), radish, wild (wild radish, Raphanus raphanistrum), windgrass (Apera spica-venti), barley, winter (winter barley, Hordeum vulgare), and wheat, winter (winter wheat, Triticum aestivum) were planted into a silt loam soil and treated preemergence with test chemicals formulated in a non-phytotoxic solvent mixture which included a surfactant. At the same time, these same crop and weed species were planted in pots containing the planting medium comprising spaghnum peat moss, vermiculite, wetting agent and starter nutrients and treated with postemergence applications of the test chemicals formulated in the same manner. Plants ranged in height from 2 to 18 cm (1- to 4-leaf stage).
Treated plants and controls were maintained in a controlled growth environment for 14 to 21 days after which time all species were compared to controls and visually evaluated. Plant response ratings, summarized in Table D, are based on a scale of 0 to 100 where 0 is no effect and 100 is complete control. A dash (-) response means no test result.

[2] = test system: barnyardgrass (Echinochloa crus-galli); test: Test F pre-/postemergence: barnyardgrass
Text: (§1) Seeds of plant species selected from corn (Zea mays), soybean (Glycine max), velvetleaf (Abutilon theophrasti), lambsquarters (Chenopodium album), poinsettia, wild (wild poinsettia, Euphorbia heterophylla), pigweed, palmer (palmer pigweed, Amaranthus palmeri), waterhemp (common waterhemp, Amaranthus rudis), surinam grass (Brachiaria decumbens), crabgrass, Brazil (Brazilian crabgrass, Digitaria horizontalis), panicum, fall (fall panicum Panicum dichotomiflorum), crabgrass, large (large crabgrass, Digitaria sanguinalis), foxtail, giant (giant foxtail, Setaria faberii), foxtail, green (green foxtail Setaria viridis), goosegrass (Eleusine indica), ragweed (common ragweed, Ambrosia elatior), barnyardgrass (Echinochloa crus-galli), sandbur (southern sandbur, Cenchrus echinatus), arrowleaf sida (Sida rhombifolia), ryegrass, Italian (Italian ryegrass, Lolium multiflorum), dayflower, VA (Virginia (VA) dayflower, Commelina virginica), field bindweed (Convolvulus arvensis), cocklebur (common cocklebur, Xanthium strumarium), morningglory (Ipomoea coccinea), nightshade (eastern black nightshade, Solanum ptycanthum), kochia (Kochia scoparia), nutsedge, yellow (yellow nutsedge, Cyperus esculentus), johnsongrass (Sorghum halepense), smartweed (ladysthumb smartweed, Polygonum persicaria), and beggarticks (hairy beggarticks, Bidens pilosa), were planted into a silt loam soil and treated preemergence with test chemicals formulated in a non-phytotoxic solvent mixture which included a surfactant. At the same time, plants selected from these crop and weed species and also pigweed (Amaranthus retroflexus), waterhemp_RES1 (ALS/Triazine resistant common waterhemp, Amaranthus rudis) and waterhemp_RES2 (ALS/HPPD resistant common waterhemp, Amaranthus rudis) were planted in pots containing a planting medium comprising spaghnum peat moss, vermiculite, wetting agent and starter nutrients treated with postemergence applications of some of the test chemicals formulated in the same manner. Plants ranged in height from 2 to 18 cm for postemergence treatments (1- to 4-leaf stage).
(§2) Treated plants and controls were maintained in a greenhouse for 14 to 21 days, after which time all species were compared to controls and visually evaluated. Plant response ratings, summarized in Table E, are based on a scale of 0 to 100 where 0 is no effect and 100 is complete control. A dash (-) response means no test result.

[3] = test system: poinsettia, wild (wild poinsettia, Euphorbia heterophylla); test: Test F pre-/postemergence: poinsettia, wild; conditions: Preemergence
Text: as §1, §2

Waterhemp = test: Test C preemergence: waterhemp; conditions: 62 g ai/ha, scale of 0 to 100, 0 is no effect, 100 is complete control
Text: Seeds of plant species selected from blackgrass (Alopecurus myosuroides), bromegrass, downy (downy bromegrass, Bromus tectorum), foxtail, green (green foxtail, Setaria viridis), ryegrass, Italian (Italian ryegrass, Lolium multiflorum), winter wheat (Triticum aestivum), wild oat (Avena fatua), galium (catchweed bedstraw, Galium aparine), bermudagrass (Cynodon dactylon), surinam grass (Brachiaria decumbens), cocklebur (common cocklebur, Xanthium strumarium), corn (Zea mays), large crabgrass (Digitaria sanguinalis), woolly cupgrass (Eriochloa villosa), foxtail, giant (giant foxtail, Setaria faberii), goosegrass (Eleusine indica), johnsongrass (Sorghum halepense), kochia (Kochia scoparia), lambsquarters (Chenopodium album), morningglory (Ipomoea coccinea), nightshade (eastern black nightshade, Solanum ptycanthum), nutsedge, yellow (yellow nutsedge, Cyperus esculentus), pigweed (Amaranthus retroflexus), ragweed (common ragweed, Ambrosia elation), soybean (Glycine max), common (oilseed) sunflower (Helianthus annuus), Russian thistle (Salsola kali) and velvetleaf (Abutilon theophrasti) were planted into a blend of loam soil and sand and treated preemergence with test chemicals formulated in a non-phytotoxic solvent mixture which included a surfactant.
Treated plants and controls were maintained in a greenhouse for 13 to 15 days, after which time all species were compared to controls and visually evaluated. Plant response ratings, summarized in Table C, are based on a scale of 0 to 100 where 0 is no effect and 100 is complete control. A dash (-) response means no test result.

[4] = Postemergence, 31 g ai/ha, scale 0 to 100 (0 no effect, 100 complete control)
[5] = Postemergence, 62 g ai/ha, scale 0 to 100 (0 no effect, 100 complete control)
[6] = Postemergence, 125 g ai/ha, scale 0 to 100, 0 no effect, 100 complete control
[7] = Postemergence, 250 g ai/ha, scale 0 to 100 (0 no effect, 100 complete control)
[8] = Postemergence, 16 g ai/ha, scale 0 to 100
[9] = Preemergence, 16 g ai/ha, scale 0 to 100 (0 no effect, 100 complete control)
[10] = Preemergence, 31 g ai/ha, scale 0 to 100 (0 no effect, 100 complete control)
[11] = Preemergence, 62 g ai/ha, scale 0 to 100
[12] = Preemergence, 125 g ai/ha, scale 0 to 100
[13] = Preemergence, 250 g ai/ha, scale 0 to 100
[14] = 16 g ai/ha, scale 0 to 100 (0 no effect, 100 complete control)
[15] = 31 g ai/ha, scale 0 to 100 (0 no effect, 100 complete control)
[16] = Postemergence, 8 g ai/ha, scale 0 to 100

SMILES | Plant response rating: Buckwheat, Wild [1, 4] | Plant response rating: Buckwheat, Wild [1, 5] | Plant response rating: Buckwheat, Wild [1, 6] | Plant response rating: Buckwheat, Wild [1, 7] | Plant response rating, Buckwheat, Wild [1, 8] | Plant response rating, Buckwheat, Wild [1, 9] | Plant response rating, Buckwheat, Wild [1, 10] | Plant response rating, Buckwheat, Wild [1, 11] | Plant response rating, Buckwheat, Wild [1, 12] | Plant response rating, Buckwheat, Wild [1, 13] | Plant response rating, Waterhemp (Waterhemp) | also measured
Cc1nn(-c2ccc(F)cc2)nc1Cc1ccnc(C(F)(F)F)c1 [Compound 16, 4-[[2-(4-fluorophenyl)-5-methyl-2H-1,2,3-triazol-4-yl]methyl]-2-(trifluoromethyl)pyridine] | 0 | 10 | 20 | 50 | 0 | 0 | 0 | 0 | 0 | 20 | – | –
Cc1nn(-c2ccc(F)cc2)nc1Oc1ccnc(C(F)(F)F)c1 [Compound 129, 4-[[2-(4-fluorophenyl)-5-methyl-2H-1,2,3-triazol-4-yl]oxy]-2-(trifluoromethyl)pyridine] | 60 | 80 | 100 | 100 | 60 | 0 | 0 | 0 | 70 | 100 | – | –
Cc1nn(-c2ccnc(C(F)(F)F)c2)nc1Cc1ccnc(C(F)(F)F)c1 [Compound 137] | 30 | 65 | 65 | 80 | 30 | – | – | – | – | – | – | –
Fc1ccc(-n2nc(Cc3ccnc(C(F)(F)F)c3)c(OCC(F)(F)F)n2)cc1 [Compound 142] | – | – | – | – | – | – | – | – | – | – | – | Plant response rating, Barnyardgrass [2, 9]: 0; Plant response rating, Barnyardgrass [2, 10]: 5; Plant response rating, Barnyardgrass [2, 11]: 30; Plant response rating, Barnyardgrass [2, 12]: 80; Plant response rating, Poinsettia, Wild [3, 14]: 0; Plant response rating, Poinsettia, Wild [3, 15]: 10; Plant response rating, Poinsettia, Wild ([3]; 125 g ai/ha, scale 0 to 100): 70
Cc1nn(-c2ccc(F)c(F)c2)nc1Oc1ccnc(C(F)(F)F)c1 [Compound 145] | 35 | 45 | 85 | – | 30 | – | – | – | – | – | – | Plant response rating, Barnyardgrass [2, 16]: 20; Plant response rating, Barnyardgrass [2, 8]: 20; Plant response rating, Barnyardgrass ([2]; Postemergence, 31 g ai/ha, scale 0 to 100): 30; Plant response rating, Barnyardgrass ([2]; Postemergence, 62 g ai/ha, scale 0 to 100): 30; Plant response rating, Barnyardgrass ([2]; Postemergence, 125 g ai/ha, scale 0 to 100): 40; Plant response rating, Buckwheat, Wild [1, 16]: 15
Cc1nn(-c2ccc(F)c(C(F)(F)F)c2)nc1Oc1ccnc(C(F)(F)F)c1 [Compound 147] | 50 | 65 | 70 | – | 45 | 15 | 10 | 30 | 100 | – | – | –
CCCc1nn(-c2ccc(F)cc2)nc1Cc1ccnc(C(F)(F)F)c1 [Compound 153] | – | – | – | – | – | – | – | – | – | – | 100 | Plant response rating, Barnyardgrass [2, 9]: 5; Plant response rating, Barnyardgrass [2, 10]: 10; Plant response rating, Barnyardgrass [2, 11]: 10; Plant response rating, Barnyardgrass [2, 12]: 75; Plant response rating, Barnyardgrass [2, 13]: 100; Plant response rating, Poinsettia, Wild [3, 14]: 0; Plant response rating, Poinsettia, Wild [3, 15]: 25; Plant response rating, Poinsettia, Wild ([3]; 125 g ai/ha, scale 0 to 100): 70; Plant response rating, Poinsettia, Wild ([3]; 250 g ai/ha, scale 0 to 100): 98
CCc1nn(-c2ccc(F)cc2)nc1Oc1ccnc(C(F)(F)F)c1 [Compound 166] | – | – | – | – | – | – | – | – | – | – | 100 | –
CCOc1nn(-c2ccc(Br)cc2)nc1Cc1ccnc(C(F)(F)F)c1 [Compound 189] | – | – | – | – | – | – | – | – | – | – | 100 | –
CCOc1nn(-c2ccc(F)cc2)nc1Cc1ccnc(C(F)F)c1 [Compound 195] | 20 | 30 | 35 | 65 | 15 | 0 | 0 | 20 | 20 | 40 | – | –
